Test results as given in US20160050930A1, “METHODS OF CONTROLLING NEONICOTINOID RESISTANT PESTS” (SYNGENTA PARTICIPATIONS AG, priority 2013, published 2016).
Structures can show the parent of a compound that is named as a salt.

Compound | melting point [°C]
N#C[C@@]1(c2cncc(Br)c2)C[C@H]2C=C[C@@H](C1)N2 | 152 to 153
CC(C)(C)OC(=O)N1[C@@H]2CC[C@H]1C[C@](C#N)(c1cncc(Br)c1)C2 | 125 to 127
N#C[C@@]1(c2cncc(F)c2)C[C@H]2C=C[C@@H](C1)N2C1CCC1 | 91 to 93
N#C[C@@]1(c2cncc(Br)c2)C[C@H]2CC[C@@H](C1)N2 | 128 to 130
N#C[C@@]1(c2cncc(I)c2)C[C@H]2C=C[C@@H](C1)N2C1COC1 | 170 to 171
N#C[C@@]1(c2cncc(Br)c2)C[C@H]2CC[C@@H](C1)N2 (as salt: TFA) | 176 to 178
